From ChEMBL document CHEMBL1201862, “PubChem BioAssay data set” (2004)
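Following 48 hours of exposure in 96-well plates, responses at five concentrations were used to interpolate endpoints linearly. GI50 = concentration required for 50% inhibition of growth.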 Active and inactive are the calls of the source. Cut-off read from the data, not from the text of the source: active = GI50 up to about 1.1 µM and inactive = higher.

Experiments:
Assay in all cases: growth of human tumour cells (NCI), 48 h
HOP-62 = system: HOP-62
MDA-MB-231 = system: MDA-MB-231
HCT-116 = system: HCT-116
TK-10 = system: TK-10
COLO 205 = system: COLO 205
HCC 2998 = system: HCC 2998
U-251 = system: U-251
Malme-3M = system: Malme-3M
SF-268 = system: SF-268
UACC-62 = system: UACC-62
MDA-MB-435 = system: MDA-MB-435
MDA-N = system: MDA-N
HT-29 = system: HT-29
BT-549 = system: BT-549
SN12C = system: SN12C
K562 = system: K562
CCRF-CEM = system: CCRF-CEM
MOLT-4 = system: MOLT-4
T47D = system: T47D

Measured: GI50

Cc1cc(Cl)nc(Nc2nc3ccccc3[nH]2)n1
inactive: HOP-62 > 100 µM | MDA-MB-231 > 100 µM | HCT-116 > 100 µM | TK-10 > 100 µM | COLO 205 > 100 µM | HCC 2998 > 100 µM | U-251 > 100 µM | Malme-3M > 100 µM | SF-268 > 100 µM | UACC-62 > 100 µM | MDA-MB-435 > 100 µM | MDA-N > 100 µM | HT-29 > 100 µM | BT-549 > 100 µM | SN12C > 100 µM | K562 > 100 µM | CCRF-CEM > 100 µM

COC(=O)[C@H](CCSC)NC(=O)N[C@H](C)c1ccccc1
inactive: HOP-62 > 100 µM | MDA-MB-231 > 100 µM | HCT-116 > 100 µM | TK-10 > 100 µM | COLO 205 > 100 µM | HCC 2998 > 100 µM | U-251 > 100 µM | Malme-3M 24.9 µM | SF-268 > 100 µM | UACC-62 > 100 µM | MOLT-4 > 100 µM | MDA-MB-435 > 100 µM | MDA-N > 100 µM | HT-29 > 100 µM | BT-549 > 100 µM | SN12C > 100 µM | K562 > 100 µM | CCRF-CEM > 100 µM

O=C(CSCC(=O)N/N=C\c1ccc(-c2ccccc2)cc1)N/N=C\c1ccc(-c2ccccc2)cc1
inactive: HOP-62 23 µM | MDA-MB-231 10.7 µM | HCT-116 9.27 µM | TK-10 26 µM | COLO 205 13.6 µM | U-251 17.7 µM | Malme-3M 27.2 µM | SF-268 15.8 µM | UACC-62 22.9 µM | MOLT-4 25.3 µM | MDA-MB-435 18.8 µM | HT-29 23 µM | BT-549 20.8 µM | SN12C 24.7 µM | K562 25.8 µM | T47D 34.9 µM

CSCCCNC(=O)[C@H](CSC)NC(=O)c1csc(CCNC(=O)[C@@H](NSc2ccccc2[N+](=O)[O-])C(C)O)n1 (stereo not given in full)
inactive: HOP-62 > 100 µM | MDA-MB-231 > 100 µM | HCT-116 > 100 µM | TK-10 > 100 µM | COLO 205 > 100 µM | HCC 2998 > 100 µM | U-251 > 100 µM | Malme-3M > 100 µM | SF-268 > 100 µM | UACC-62 > 100 µM | MOLT-4 > 100 µM | MDA-MB-435 > 100 µM | MDA-N > 100 µM | HT-29 > 100 µM | BT-549 > 100 µM | SN12C > 100 µM | K562 > 100 µM | CCRF-CEM > 100 µM

C=CC(Cl)(CBr)CCC(Br)=C(C)C (stereo not given)
inactive: HOP-62 > 100 µM | MDA-MB-231 19.4 µM | HCT-116 23.6 µM | TK-10 26.3 µM | COLO 205 17.9 µM | HCC 2998 23.6 µM | U-251 16.9 µM | Malme-3M 17.6 µM | SF-268 21 µM | UACC-62 18.6 µM | MOLT-4 > 100 µM | MDA-MB-435 20.4 µM | MDA-N 19.4 µM | HT-29 19.5 µM | BT-549 21.5 µM | SN12C 16.9 µM | K562 31.2 µM | CCRF-CEM 26 µM

CCCC(=O)OC[n+]1ccc(-c2c(COC(=O)NC(C)C)c(COC(=O)NC(C)C)c3n2CCC3)cc1
inactive: HOP-62 84.1 µM | MDA-MB-231 > 100 µM | HCT-116 > 100 µM | TK-10 > 100 µM | COLO 205 > 100 µM | HCC 2998 > 100 µM | U-251 > 100 µM | Malme-3M > 100 µM | SF-268 65.8 µM | UACC-62 47 µM | MOLT-4 41.5 µM | MDA-MB-435 > 100 µM | HT-29 > 100 µM | BT-549 > 100 µM | SN12C > 100 µM | K562 > 100 µM | T47D > 100 µM | CCRF-CEM 44.6 µM
